What was measured:
Human primary T cells = assay: T cell activation with anti-CD3/anti-CD28; type: cell-based; conditions: for Number of activated cells (CD3+CD25+CD69+ cells) / Proliferation rate (CTV) / Surface marker expression (CD69, CD154, CD134, CD25, CD18, CD49a, CD54) / Apoptosis (zombie staining) / Cytokine release (IL-17A, IL-10, IFN-γ): activated T cells, 5 days; for Apoptosis (zombie staining): 0.25-0.5 nM; for Cytokine release (IL-17A, IL-10, IFN-γ): CBA; for Effect on the release of inflammatory markers, T Cells: summary table
Experimental: T cells were activated as previously described. Briefly, 1.75 × 10^5 T cells (stained with 0.2 µM CellTrace^TM violet (CTV) (ThermoFisher Scientific, Schwerte, Germany)) per well were pretreated with PatA (0.25, 0.5 nM), DMDA (0.25, 0.5 nM) or vehicle (DMSO) for 30 min in RPMI 1640 medium supplemented with 2 mM glutamine, 50 Units/mL IL-2, 1% penicillin/streptomycin and 10% FCS. Afterwards, they were seeded in CD3-coated 96-well plates and stimulated with 2 µg/mL CD28 for 5 days. CTV staining was performed according to the protocol of supplier.
Surface marker analysis was performed as described previously. Briefly, 1.5–2 × 10^5 cells of each sample were blocked with human FcR Blocking Reagent (15 min, 4 °C). A Zombie Aqua™ Fixable Viability Kit (1:500 dilution, BioLegend, San Diego, CA, USA) was used according to the manufactory protocol to discriminate living and dead cells. Afterwards, samples were stained with a mixture of different surface marker antibodies (15 min, 4 °C) and measured with MACSQuant® Analyzer 10 flow cytometer. For M1-/M2-MdMs anti-CD86, anti-CD14, anti-HLA-DR, anti-CD206, anti-CD80, anti-TREM2 and anti-CD163 were used. For T cells, anti-CD69, anti-CD54, anti-CD49a, anti-CD18, anti-CD134, anti-CD154, anti-CD3 and anti-CD25 were analyzed. For B cells, anti-CD27, anti-CD19 and anti-CD38 were applied. For T cell and B cell proliferation assay, freshly isolated T and B cells were stained with CTV and detected using flow cytometry. Naïve B cells were characterized as CD19^+CD27^lowCD38^med, memory B cells as CD19^+CD27^med CD38^low and plasma cells as CD27^+CD38^+ cells. M1 MdMs and M2 MdMs cell population was gated using FSC/SSC channel. T cells were gated as CD3^+CD25^+ positive cells. The geometric mean of the fluorescent intensity was calculated using FlowJo software v10 (Treestar, Ashland, […], USA). Fold induction of surface marker expression was calculated using the DMSO-treated cells as the control.
For determination of cytokine concentrations in the supernatant of humane immune cells, cytometric bead array (BD Biosciences, Heidelberg, Germany) for IL-10, IL-17, IL-8, IL-6, IFN-γ and CCL2 was used. For the detection of CCL18, CCL17, IgG, IgA and PGE2, an ELISA was performed. The cytometric bead arrays and the ELISAs were performed according to the protocol of the supplier.

[1] = tested on: B cells, T cells, M1 MdMs, M2 MdMs; assay: Immune cell viability, formazan-based assay; design: species or system human; conditions: 48 h
Experimental: nitrogen, and the residue dissolved in 50 µl methanol. The analysis was performed with an Agilent 1290 Inﬁnity LC system (Agilent, Waldbronn, Germany) coupled to a hybrid triple quadrupole linear ion trap mass spectrometer QTRAP 6500+ (Sciex, Darmstadt, Ger-many) equipped with a Turbo-V-source operating in positive electrospray ionization mode. The chromatographic separation was carried out using an Acquity UPLC BEH C18 column (100x 2.1 mm, 1.7 µm; Waters, Eschborn, Deutschland), maintained at 40 °C. Mobile Phase A was 0.1% formic acid with 20 mM ammonium formate and mobile Phase B was meth-anol with 0.1% formic acid with 20 mM ammonium formate. A gradient program was em-ployed at a flow rate of 400 µl/min, as follows: initial 20% B to 0.5 min, increasing to 90% B from 0.5 to 4.5 min, with a hold time of 1.0 min. Re-equilibration was performed by reducing to 20% B from 5.5 to 5.6 min, and then holding at 20% B until 7.0 min.
For analysis and quantiﬁcation of all compounds, Analyst Software 1.7.1 and Multi-quant Software 3.0.3 (both Sciex, Darmstadt, Germany) were used. The precursor-to-prod-uct ion transitions used for quantiﬁcation were: m/z 237.1 → m/z 194.1 for carbamazepine, […]
482.2 for DMDA, and […]. […]
Supplementary Figure S1. […] Viability was determined by a formazan-based assay. […]

Row | SMILES | Number of activated cells (CD3+CD25+CD69+ cells) (Human primary T cells) | Proliferation rate (CTV) (Human primary T cells) | Surface marker expression (CD69, CD154, CD134, CD25, CD18, CD49a, CD54) (Human primary T cells) | Apoptosis (zombie staining) (Human primary T cells) | Cytokine release (IL-17A, IL-10, IFN-γ) (Human primary T cells) | Effect on the release of inflammatory markers, T Cells (Human primary T cells) | Cytotoxicity in immune cell types [1]
1 | CC(/C=C/C(C)=C/[C@@H]1Cc2nc(cs2)[C@@H](C)C[C@@H](N)CC(=O)O[C@@H](C)C/C(C)=C/C=C\C(=O)O1)=C\CN(C)C [PatA, pateamine A] | did not influence the number of activated cells | Neither had any effects | Neither had any effects | showed no apoptotic effects | Neither had any effects | No effect | –
2 | CC(/C=C/C(C)=C/[C@@H]1Cc2nc(cs2)CCCCC(=O)O[C@@H](C)C/C(C)=C/C=C\C(=O)O1)=C\CN(C)C [DMDA, des-methyl des-amino pateamine A] | did not influence the number of activated cells | Neither had any effects | Neither had any effects | showed no apoptotic effects | Neither had any effects | No effect | less cytotoxic in comparison with PatA

From paper PMC11546719, “Immune Modulatory Profile of the Pateamines PatA and Des-Methyl Des-Amino PatA” (International Journal of Molecular Sciences, 2024)
